Data reported in patent US6369003B1, “Process and composition for soil improvement by reducing microbially formed ethylene in the soil” (BASF Aktiengesellschaft, priority 1994, dated 2002).

What was measured:
[1] = tested on: Peas (Kleine Rheinländerin); assay: Peas test 2b: biomass and root nodules, greenhouse; assay type: in vivo, Pisum sativum; settings: 12 days after treatment; for Dry matter (shoot + root): control 2.55; for Nodules: control 20
Procedure: (§1) In these tests various types of non-sterile soils were used. The cultivation of the plants was carried out under greenhouse or climatic chamber conditions. The active compounds according to the invention were applied uniformly distributed over the soil surface in an aqueous preparation after the emergence of the respective test plants. The supply of water for the plants was carrried out using the same technique, always paying attention to uniform moistness of the soil. In the case of the cultivation of legumes, defined amounts of species-specific Rhizobia were admixed to the soil. In some cases inoculation was also carried out by seed treatment.
b) Peas (Kleine Rheinländerin) were cultivated under greenhouse conditions in low N Limburgerhof soil in plastic pots (500 ml) and watered from above as required (constant weight). A few days after emergence the plants were thinned out to 5 plants per pot.
In four pots in each case aqueous active compound solutions of one concentration of 2.3.1.3 were applied by watering. Four pots remained untreated.
12 days after treatment the following results were obtained: […]

[2] = tested on: Bean plants (Small Seeded Bell); assay: Field beans: root nodules, root and shoot biomass, greenhouse; assay type: in vivo, Vicia faba; settings: 25 days after treatment; for Nodules: untreated 30.9; for Dry matter root: untreated 1090; for Dry matter shoot: untreated 2310
Procedure: as §1
Bean plants (Small Seeded Bell) were cultivated under greenhouse conditions in low N, sandy loam soil in plastic pots (750 ml) and watered from above as required. A few days after emergence the plants were thinned out to 3 plants per pot.
In 5 pots in each case 25 ml each of an aqueous preparation of one concentration of 2.3.1.3 were applied by watering. 5 pots remained untreated.
(§2) 25 days after treatment the following results were obtained: […]

[3] = tested on: Lucerne plants (Maricopa); assay: Lucerne: root nodules and shoot biomass, greenhouse; assay type: in vivo, Medicago sativa; settings: 25 days after treatment; for Root nodules: untreated 10.5; for Dry matter shoot: untreated 180
Procedure: as §1
Lucerne plants (Maricopa) were cultivated under greenhouse conditions in low N, sandy loam soil in plastic pots (750 ml) and watered from above as required. A few days after emergence the plants were thinned out to 3 plants per pot.
In 5 pots in each case 25 ml of an aqueous preparation of one concentration of 2.3.1.3 were applied by watering. 5 pots remained untreated.
as §2

[4] = tested on: Soybeans of the variety Delta Pine 147; assay: Field test: seed yield in soybeans; assay type: in vivo, Glycine max; settings: untreated = 100 (29.9 dt/ha)
Procedure: The tests a) and b) were carried out under conditions like those in practice in 1993 on the field test site of BASF Corporation in Holly Springs, N.C., USA. This location is distinguished by a medium-heavy soil (sandy loam).
Soybeans of the variety Delta Pine 147 were used. Treatment was carried out to the following stages of development: 11 (1st trefoil formed), 13 (3rd trefoil formed) and 14 (5th trefoil formed). For treatment, the soil between the rows was sprayed with an aqueous preparation of the active compound 2.3.1.3. Immediately after the application, the active compound was washed into the soil by spray irrigation with 20 mm of water. The spray irrigation was also used to wash off active compound which had possibly reached the leaves.
Harvesting of the plants at full maturity gave the following results: […]

[5] = tested on: Groudnuts of the variety Florigiant; assay: Field test: seed yield and seed quality in groundnuts; assay type: in vivo, Arachis hypogaea; settings: for Seeds of the highest quality level: relative, untreated = 100 (38.0 %); for Yield of groundnuts: untreated = 100 (45.4 dt/ha)
Procedure: The tests a) and b) were carried out under conditions like those in practice in 1993 on the field test site of BASF Corporation in Holly Springs, N.C., USA. This location is distinguished by a medium-heavy soil (sandy loam). Groudnuts of the variety Florigiant were used. Treatment was carried out 20, 27 and 34 days after emergence of the plants. For treatment, the soil between the rows was sprayed with an aqueous preparation of the active compound 2.3.1.3. Immediately after application the active compound was washed into the soil by spray irrigation with 20 mm of water. The spray irrigation was also used to wash off active compound which had possibly reached the leaves. Harvesting of the plants at full maturity gave the following results: […]

[6] = 10 g/ha of a.s., treated 20 days after emergence
[7] = 10 g/ha of a.s., treated 27 days after emergence
[8] = 10 g/ha of a.s., treated 34 days after emergence
[9] = 100 g/ha of a.s., treated 20 days after emergence
[10] = 100 g/ha of a.s., treated 27 days after emergence
[11] = 100 g/ha of a.s., treated 34 days after emergence
[12] = 1000 g/ha of a.s., treated 20 days after emergence
[13] = 1000 g/ha of a.s., treated 27 days after emergence
[14] = 1000 g/ha of a.s., treated 34 days after emergence

With `COC(=O)COC(=O)CON=C(C)C` [active compound 2.3.1.3] as the molecule, how does the “Dry matter (shoot + root)” value ([1]; 0.001 mg/pot) read?
The value was 2.65 g/pot.

And the Nodules ([1]; 0.001 mg/pot)?
The Nodules was 31 number/pot.

What about the “Dry matter (shoot + root)” value ([1]; 0.003 mg/pot) of the same molecule?
Its value is 3.07 g/pot.

And the Nodules ([1]; 0.003 mg/pot)?
Its Nodules is 68 number/pot.

What about the “Dry matter (shoot + root)” value ([1]; 0.010 mg/pot) of the same molecule?
Its value is 3.00 g/pot.

What about the Nodules ([1]; 0.010 mg/pot) of the same molecule?
The Nodules was 66 number/pot.

And the “Dry matter (shoot + root)” value ([1]; 0.030 mg/pot (insect attack))?
The value was 2.32 g/pot.

What about the Nodules ([1]; 0.030 mg/pot (insect attack)) of the same molecule?
The Nodules was 30 number/pot.

And the “Dry matter (shoot + root)” value ([1]; 0.100 mg/pot)?
Its value is 2.52 g/pot.

And the Nodules ([1]; 0.100 mg/pot)?
The Nodules was 59 number/pot.

What about the “Dry matter (shoot + root)” value ([1]; 0.300 mg/pot) of the same molecule?
The value was 3.13 g/pot.

What about the Nodules ([1]; 0.300 mg/pot) of the same molecule?
Its Nodules is 76 number/pot.

And the Nodules ([2]; 30 g of a.s./ha)?
Its Nodules is 34.3 number/plant.

And the Dry matter root ([2]; 30 g of a.s./ha)?
Its Dry matter root is 1380 mg/plant.

And the Dry matter shoot ([2]; 30 g of a.s./ha)?
Its Dry matter shoot is 2880 mg/plant.

What about the Nodules ([2]; 300 g of a.s./ha) of the same molecule?
Its Nodules is 50.7 number/plant.

What about the Dry matter root ([2]; 300 g of a.s./ha) of the same molecule?
The Dry matter root was 1470 mg/plant.

What about the Dry matter shoot ([2]; 300 g of a.s./ha) of the same molecule?
The Dry matter shoot was 3940 mg/plant.

What about the Nodules ([2]; 3000 g of a.s./ha) of the same molecule?
The Nodules was 48.2 number/plant.

And the Dry matter root ([2]; 3000 g of a.s./ha)?
The Dry matter root was 960 mg/plant.

What about the Dry matter shoot ([2]; 3000 g of a.s./ha) of the same molecule?
Its Dry matter shoot is 2450 mg/plant.

What about the Root nodules ([3]; 30 g of a.s./ha) of the same molecule?
The Root nodules was 10.7 number/plant.

What about the Dry matter shoot ([3]; 30 g of a.s./ha) of the same molecule?
The Dry matter shoot was 300 mg/plant.

And the Root nodules ([3]; 300 g of a.s./ha)?
The Root nodules was 10.3 number/plant.

What about the Dry matter shoot ([3]; 300 g of a.s./ha) of the same molecule?
Its Dry matter shoot is 240 mg/plant.

And the Bean yield ([4]; 10 g/ha of a.s., growth stage 11 during treatment)?
Its Bean yield is 104%.

What about the Bean yield ([4]; 10 g/ha of a.s., growth stage 13 during treatment) of the same molecule?
Its Bean yield is 116%.

What about the Bean yield ([4]; 10 g/ha of a.s., growth stage 14 during treatment) of the same molecule?
Its Bean yield is 110%.

And the Bean yield ([4]; 100 g/ha of a.s., growth stage 11 during treatment)?
Its Bean yield is 122%.

And the Bean yield ([4]; 100 g/ha of a.s., growth stage 13 during treatment)?
Its Bean yield is 117%.

What about the Bean yield ([4]; 100 g/ha of a.s., growth stage 14 during treatment) of the same molecule?
Its Bean yield is 112%.

What about the Bean yield ([4]; 1000 g/ha of a.s., growth stage 11 during treatment) of the same molecule?
Its Bean yield is 110%.

And the Bean yield ([4]; 1000 g/ha of a.s., growth stage 13 during treatment)?
The Bean yield was 122%.

What about the Bean yield ([4]; 1000 g/ha of a.s., growth stage 14 during treatment) of the same molecule?
The Bean yield was 108%.

What about the “Seeds of the highest quality level” value [5, 6] of the same molecule?
Its value is 124%.

And the Yield of groundnuts [5, 6]?
Its Yield of groundnuts is 108%.

What about the “Seeds of the highest quality level” value [5, 7] of the same molecule?
Its value is 121%.

And the Yield of groundnuts [5, 7]?
Its Yield of groundnuts is 109%.

What about the “Seeds of the highest quality level” value [5, 8] of the same molecule?
Its value is 113%.

And the Yield of groundnuts [5, 8]?
The Yield of groundnuts was 124%.

What about the “Seeds of the highest quality level” value [5, 9] of the same molecule?
Its value is 95%.

And the Yield of groundnuts [5, 9]?
Its Yield of groundnuts is 121%.

And the “Seeds of the highest quality level” value [5, 10]?
Its value is 113%.

What about the Yield of groundnuts [5, 10] of the same molecule?
Its Yield of groundnuts is 104%.

What about the “Seeds of the highest quality level” value [5, 11] of the same molecule?
The value was 84%.

What about the Yield of groundnuts [5, 11] of the same molecule?
The Yield of groundnuts was 121%.

And the “Seeds of the highest quality level” value [5, 12]?
Its value is 103%.

What about the Yield of groundnuts [5, 12] of the same molecule?
Its Yield of groundnuts is 113%.

And the “Seeds of the highest quality level” value [5, 13]?
Its value is 113%.

What about the Yield of groundnuts [5, 13] of the same molecule?
The Yield of groundnuts was 120%.

And the “Seeds of the highest quality level” value [5, 14]?
The value was 108%.

And the Yield of groundnuts [5, 14]?
The Yield of groundnuts was 113%.
